Biological target: T1, cardiac sodium channels Nav1.5 in the intercalated discs of cardiomyocytes (Mus musculus, UniProt Q9JJV9)
T1 construct: The heart was harvested and perfused in the Langendorff system; endogenous in cells; host or cells: primary adult mouse cardiomyocytes isolated from heart by Langendorff perfusion
Assay: Nav1.5 density change in intercalated discs of cardiomyocytes (immunocytochemistry, confocal microscopy)
Assay type: cell-based
Details: test compound at a concentration of 100 μM or higher vs. untreated sample, p<0.05
Method: Briefly, the mice were injected with 200 IU heparin i.p. prior to sacrifice. The thoracic chamber was opened and a cannula with perfusion solution was inserted from the atria. The heart was harvested and perfused in the Langendorff system with Perfusion Buffer at 37° C. for 5 min, followed by Digestion Buffer until the heart muscle was pale and some signs of extracellular matrix dissociation appeared. The heart was perfused for additional 5 min with Perfusion Buffer to stop the dissociation. The cardiomyocytes were mechanically dissociated in TB-A and then plated on ECM-coated (Sigma cat. no. E-1270) petri dish (Zell-Kontakt cat. no. 5160-30). […]
Confocal images of red and green immunofluorescence of stained cardiomyocytes were acquired, e.g. on a Leica confocal laser scanning unit TCS NT, which is coupled to a Leica DM IRB microscope. […] Fluorescence signals of Nav1.5 staining were recorded at 20%, 50% and 80% laser intensity, and fluorescence signals of cadherin was recorded at 80% laser intensity to generate the Region of Interest (ROI) (modified from Yampolsky et al., 2010, a). All images were digitally saved and later processed with Image) (NIH, Bethesda, Md., USA) software using proprietary quantification methods and standard Image) plug-ins.
ROI were set as defined by the fluorescence signals of the cadherin staining, which represented the intercalated discs. […]

T1 sequence (Q9JJV9 whole entry, the tested form may be a part): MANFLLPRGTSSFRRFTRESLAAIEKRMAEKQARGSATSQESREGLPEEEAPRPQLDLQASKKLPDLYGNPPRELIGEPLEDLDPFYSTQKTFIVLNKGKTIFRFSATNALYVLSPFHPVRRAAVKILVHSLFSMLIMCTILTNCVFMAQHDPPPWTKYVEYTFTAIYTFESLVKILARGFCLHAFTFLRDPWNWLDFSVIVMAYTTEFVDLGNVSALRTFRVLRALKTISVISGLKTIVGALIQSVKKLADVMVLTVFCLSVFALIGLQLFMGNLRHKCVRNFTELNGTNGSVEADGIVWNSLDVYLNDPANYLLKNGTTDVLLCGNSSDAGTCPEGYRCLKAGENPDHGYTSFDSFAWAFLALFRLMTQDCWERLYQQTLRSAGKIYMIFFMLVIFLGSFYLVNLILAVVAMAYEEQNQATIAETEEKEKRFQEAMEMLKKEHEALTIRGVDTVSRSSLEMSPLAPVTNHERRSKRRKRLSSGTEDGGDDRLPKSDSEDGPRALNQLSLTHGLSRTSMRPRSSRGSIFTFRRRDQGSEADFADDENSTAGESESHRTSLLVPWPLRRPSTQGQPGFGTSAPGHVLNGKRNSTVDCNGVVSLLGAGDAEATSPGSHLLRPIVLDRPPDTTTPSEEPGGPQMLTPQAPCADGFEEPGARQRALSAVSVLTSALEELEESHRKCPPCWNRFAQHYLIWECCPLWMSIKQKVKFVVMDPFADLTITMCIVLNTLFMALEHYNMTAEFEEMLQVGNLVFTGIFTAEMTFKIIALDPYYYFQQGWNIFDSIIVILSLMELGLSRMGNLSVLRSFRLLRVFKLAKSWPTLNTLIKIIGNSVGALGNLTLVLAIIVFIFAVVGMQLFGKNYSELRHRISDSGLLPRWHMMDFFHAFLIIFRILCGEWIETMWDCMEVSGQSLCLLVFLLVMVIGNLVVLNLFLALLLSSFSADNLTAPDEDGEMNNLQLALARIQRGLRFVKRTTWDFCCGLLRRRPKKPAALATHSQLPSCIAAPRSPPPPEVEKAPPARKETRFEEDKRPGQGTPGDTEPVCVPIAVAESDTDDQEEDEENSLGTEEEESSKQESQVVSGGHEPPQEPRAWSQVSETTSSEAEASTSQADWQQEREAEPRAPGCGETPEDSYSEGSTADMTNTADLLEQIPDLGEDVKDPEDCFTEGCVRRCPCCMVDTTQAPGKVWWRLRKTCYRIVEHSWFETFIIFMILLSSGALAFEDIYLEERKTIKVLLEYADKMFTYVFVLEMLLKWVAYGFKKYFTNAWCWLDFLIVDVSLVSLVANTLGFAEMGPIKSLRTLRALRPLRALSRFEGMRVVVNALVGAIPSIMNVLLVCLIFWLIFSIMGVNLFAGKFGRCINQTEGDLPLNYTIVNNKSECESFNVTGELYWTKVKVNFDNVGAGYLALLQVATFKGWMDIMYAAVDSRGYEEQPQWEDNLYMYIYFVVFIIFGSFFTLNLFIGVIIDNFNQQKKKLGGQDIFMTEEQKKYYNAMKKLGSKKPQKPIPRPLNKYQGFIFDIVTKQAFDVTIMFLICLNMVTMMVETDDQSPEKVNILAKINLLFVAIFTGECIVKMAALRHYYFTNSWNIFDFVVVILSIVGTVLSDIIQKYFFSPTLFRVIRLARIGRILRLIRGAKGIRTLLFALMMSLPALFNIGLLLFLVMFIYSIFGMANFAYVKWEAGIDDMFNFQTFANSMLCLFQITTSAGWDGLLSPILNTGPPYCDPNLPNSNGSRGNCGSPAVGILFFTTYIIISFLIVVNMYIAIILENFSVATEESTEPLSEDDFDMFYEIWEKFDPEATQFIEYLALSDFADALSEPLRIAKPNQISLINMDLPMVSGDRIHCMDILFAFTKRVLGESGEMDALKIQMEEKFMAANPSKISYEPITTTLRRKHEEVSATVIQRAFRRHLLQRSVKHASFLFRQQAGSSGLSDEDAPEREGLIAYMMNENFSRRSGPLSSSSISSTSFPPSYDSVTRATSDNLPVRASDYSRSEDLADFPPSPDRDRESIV

O=C(NCC1CCCCN1)c1cc(OCC(F)(F)F)ccc1OCC(F)(F)F (stereo not shown) [flecainide]
change of the Nav1.5 density in comparison to the untreated sample: significant change
